According to patent US20210349099A1, “CANCER BIOMARKERS AND METHODS OF USE THEREOF” (X4 Pharmaceuticals, Inc., priority 2017, published 2021):

System: melanoma tumor gene signatures
Test: NanoString nCounter gene expression of FFPE melanoma biopsies
Assay type: in vivo, human
From the text: FFPE gene expression analysis: For each gene biomarker, RNA was extracted from FFPE slides using Qiagen's AllPrep kit (Cat. 80234) and analyzed using NanoString nCounter platform with the PanCancer Immune probe set. Raw counts were normalized using the geometric mean of 30 housekeeping genes and the normalized data from both panels were merged and analyzed with nSolver software (Version 4.0).
Interferon gene signature was based on Ayers et al (JCI 2017) and calculated in the following manner. For each patient (pt) sample, the geometric mean was calculated from the normalized counts for six genes (IFN-γ, CXCL9, CXCL10, HLA-DRA, IDO1, STAT1) and then the mean was Log 10-transformed to generate the Gene Expression score. […] Gene scores were calculated for each patient sample from the geometric mean of normalized counts for IFN-gamma, CXCL9, CXCL10, HLA-DRA, IDO1, and STAT1. The mean was Log 10-transformed to generate the Gene Expression score.
The tumor inflammatory signature (TIS) was calculated from 18 genes by taking the Log 10 of the geometric mean of the normalized counts across each gene set to generate a “Gene signature score”. See, e.g., Righi E, Kashiwagi S, Yuan J, et al. “CXCL12/CXCR4 Blockade Induces Multimodal Antitumor Effects That Prolong Survival in an Immunocompetent Mouse Model of Ovarian Cancer,” Cancer Res. 2011; 71(16):5522-5534.
Raw counts were normalized using the geometric mean of housekeeping genes. The Interferon-gamma gene signature score was assessed by a procedure essentially as described in Ayers et al. (2017) J. Clin. Invest. 127:2930-2940.
To perform the CTL signature measurement, RNA was extracted from FFPE slides using Qiagen's AllPrep kit and analyzed using the NanoString nCounter platform with the PanCancer Immune probe set. Raw counts were normalized using the geometric mean of housekeeping genes. NanoString nCounter validation is described at Malkov et al. (2009) BMC Research Notes; 2:80; accessed Nov. 2, 2017 at https://bmcresnotes.biomedcentral.com/articles/10.1186/1756-0500-2-80; Waggott et al. (2012) Bioinformatics 28:1546-1548; see also nCounter® Analysis System User Manual (July 2015), published by NanoString Technologies®, Inc., accessed Nov. 2, 2017, at https://www.nanostring.com/application/files/7114/8942/6665/MAN-C0035-05_nCounter Analysis_System_GEN2.pdf.
For each gene biomarker, RNA was extracted from FFPE slides using Qiagen's AllPrep kit (Cat. 80234) and analyzed using NanoString nCounter platform with the PanCancer Immune probe set. Raw counts were normalized using the geometric mean of housekeeping genes, as described above.
Antigen Presentation/Processing Gene Signature was calculated by taking the geometric mean of the normalized counts for eighteen (18) genes (B2M, CD74, CTSL, CTSS, HLA-DMA, HLA-DMB, HLA-DOB, HLA-DPA1, HLA-DPB1, HLA-DQA1, HLA-DQB1, HLA-DRA, HLA-DRB1, HLA-DRB3, PSMB8, PSMB9, TAP1, and TAP2) and then Log 10-transforming the mean to generate the Gene Expression Score.
Tumor Inflammation Signature was calculated by taking the geometric mean of the normalized counts for eighteen (18) genes (CCL5, CD27, CD274, CD276, CD8A, CMKLR1, CXCL9, CXCR6, HLA-DQA1, HLA-DRB1, HLA-E, IDO1, LAG3, NKG7, PDCD1LG2, PSMB10, STAT1, and TIGIT) and then Log 10-transforming the mean to generate the Gene Expression Score.

[1] = pre- vs post-dosing, five patients
[2] = pre- vs post-dosing, patients 2, 3, 5, 8, and 9

NCCCCN(Cc1nc2ccccc2[nH]1)[C@H]1CCCc2cccnc21 [X4P-001]
CD8A expression (NanoString nCounter): increased
CD8B expression (NanoString nCounter): increased
granzyme B expression (NanoString nCounter): increased
Tumor Inflammation Signature Gene Expression Score, Post-X4P-001 Score (Patient 2, Pre-Dose Score 2.123, Log 10 of geometric mean of 18 genes): 2.225
Antigen Presentation/Processing Gene Expression Score, Post-X4P-001 Score (Patient 2, Pre-Dose Score 2.94, Log 10 of geometric mean of 18 genes): 2.986
Tumor Inflammation Signature Gene Expression Score, Post-X4P-001 Score (Patient 3, Pre-Dose Score 2.647): 2.798
Antigen Presentation/Processing Gene Expression Score, Post-X4P-001 Score (Patient 3, Pre-Dose Score 3.139): 3.324
Tumor Inflammation Signature Gene Expression Score, Post-X4P-001 Score (Patient 5, Pre-Dose Score 2.871): 3.257
Antigen Presentation/Processing Gene Expression Score, Post-X4P-001 Score (Patient 5, Pre-Dose Score 3.519): 3.806
Tumor Inflammation Signature Gene Expression Score, Post-X4P-001 Score (Patient 8, Pre-Dose Score 2.508): 2.834
Antigen Presentation/Processing Gene Expression Score, Post-X4P-001 Score (Patient 8, Pre-Dose Score 3.134): 3.518
Tumor Inflammation Signature Gene Expression Score, Post-X4P-001 Score (Patient 9, Pre-Dose Score 2.233): 2.597
Antigen Presentation/Processing Gene Expression Score, Post-X4P-001 Score (Patient 9, Pre-Dose Score 3.082): 3.495
cytotoxic T lymphocyte (CTL) gene signature gene expression score [1]: increased for each one of the five patients
interferon gamma (IFN-γ) gene signature Gene Expression Score [1]: increased for each one of the five patients
Antigen Presentation/Processing Gene Expression Score, change [2]: increased for each patient
Tumor Inflammation Signature Gene Expression Score, change [2]: increased for each patient
